Molecular target: T1, human lysozyme (Homo sapiens, UniProt P61626)
T1 construct: gene LYZ; wild type, expressed in Pichia pastoris (residues 1 to 130)
T1 sequence (P61626 19-148): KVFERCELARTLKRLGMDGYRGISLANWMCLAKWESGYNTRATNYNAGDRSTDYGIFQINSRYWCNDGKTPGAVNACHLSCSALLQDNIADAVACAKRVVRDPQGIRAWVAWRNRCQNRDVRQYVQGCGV
Test: SPR (Biacore single chain kinetics); also 1H-15N HSQC NMR titration and RDCs of the bound state
Type: binding

Kd: ~9 µM
SMILES: CC(=O)N[C@H]1[C@H](O[C@H]2[C@H](O)[C@@H](NC(C)=O)C(O)O[C@@H]2CO)O[C@H](CO)[C@@H](O[C@@H]2O[C@H](CO)[C@@H](O)[C@H](O)[C@H]2NC(C)=O)[C@@H]1O (stereo partly shown) [triNAG, N,N′,N′′-Triacetylchitotriose]

Source: publication PMC4383205, “Structure of a low-population intermediate state in the release of an enzyme product” (eLife, 2015)
